Measured values from ChEMBL document CHEMBL1201862, “PubChem BioAssay data set” (2004).
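Assay format: 96-well plates, 48-hour exposure. Here, GI50 denotes the concentration required for 50% inhibition of growth.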 Calls of active or inactive are those of the source. No stated cut-off is given here; in the data, active = GI50 up to about 1.1 µM and inactive = higher.

Legend:
Experiment in all cases: NCI-60 cell line screen, 48 h
UACC-257 = system: UACC-257
T47D = system: T47D
CCRF-CEM = system: CCRF-CEM
BT-549 = system: BT-549
NCI/ADR-RES = system: NCI/ADR-RES
786-0 = system: 786-0
SF-268 = system: SF-268
RXF 393 = system: RXF 393
A549 = system: A549
MDA-MB-231 = system: MDA-MB-231
IGROV-1 = system: IGROV-1
NCI-H522 = system: NCI-H522
HOP-92 = system: HOP-92
SF-295 = system: SF-295
SR = system: SR
A498 = system: A498
SK-MEL-2 = system: SK-MEL-2
MDA-N = system: MDA-N

Measured: GI50

CC[C@@]12CCC(=S)N(CCSc3ccccc3)[C@@H]1c1c(n(S(=O)(=O)c3ccc(OC)cc3)c3ccccc13)CC2
inactive: UACC-257 > 100 µM | T47D > 100 µM | CCRF-CEM > 100 µM | BT-549 48.1 µM | NCI/ADR-RES > 100 µM | 786-0 63.1 µM | SF-268 > 100 µM | RXF 393 24.1 µM | A549 > 100 µM | MDA-MB-231 > 100 µM | IGROV-1 > 100 µM | NCI-H522 > 100 µM | HOP-92 73.6 µM | SF-295 > 100 µM | SR > 100 µM | A498 > 100 µM | SK-MEL-2 > 100 µM

COC(=O)CNCC1OC2OC(C)(C)OC2C1N=[N+]=[N-] (stereo unspecified)
inactive: UACC-257 > 100 µM | T47D > 100 µM | CCRF-CEM > 100 µM | BT-549 > 100 µM | NCI/ADR-RES > 100 µM | 786-0 > 100 µM | RXF 393 > 100 µM | A549 > 100 µM | IGROV-1 > 100 µM | HOP-92 > 100 µM | SF-295 > 100 µM | MDA-N > 100 µM | SR > 100 µM | A498 > 100 µM | SK-MEL-2 > 100 µM

O=C1O[C@H](c2ccc3c(c2)OCO3)[C@H]2CO[C@@H](c3ccc4c(c3)OCO4)[C@@H]12
inactive: UACC-257 54.6 µM | BT-549 > 100 µM | NCI/ADR-RES 74.1 µM | 786-0 > 100 µM | SF-268 > 100 µM | RXF 393 > 100 µM | A549 > 100 µM | MDA-MB-231 > 100 µM | IGROV-1 > 100 µM | NCI-H522 94.8 µM | HOP-92 > 100 µM | SF-295 60.1 µM | MDA-N > 100 µM | SR 42.7 µM | SK-MEL-2 > 100 µM

O=C1c2cc3c(cc2CC12Cc1ccc4c(c1C2=O)CCC4)CCC3 (stereo unspecified)
inactive: UACC-257 > 100 µM | T47D > 100 µM | CCRF-CEM > 100 µM | NCI/ADR-RES > 100 µM | 786-0 65.6 µM | SF-268 > 100 µM | RXF 393 > 100 µM | A549 > 100 µM | MDA-MB-231 > 100 µM | IGROV-1 > 100 µM | NCI-H522 > 100 µM | HOP-92 > 100 µM | SF-295 > 100 µM | MDA-N > 100 µM | SR > 100 µM | A498 > 100 µM | SK-MEL-2 > 100 µM

CCn1nc(C)c2c1C(=O)NCC(=O)N2
inactive: UACC-257 > 100 µM | BT-549 > 100 µM | SF-268 > 100 µM | RXF 393 > 100 µM | A549 > 100 µM | IGROV-1 > 100 µM | NCI-H522 > 100 µM | HOP-92 > 100 µM | SF-295 > 100 µM | MDA-N > 100 µM | A498 > 100 µM

O=C1C[C@@]23CCC4(CC2CCC[C@H]3O1)OCCO4 (stereo partly specified)
inactive: UACC-257 > 100 µM | T47D > 100 µM | NCI/ADR-RES > 100 µM | 786-0 > 100 µM | SF-268 > 100 µM | RXF 393 > 100 µM | A549 > 100 µM | MDA-MB-231 > 100 µM | IGROV-1 > 100 µM | NCI-H522 > 100 µM | HOP-92 > 100 µM | SF-295 > 100 µM | MDA-N > 100 µM | SR > 100 µM | A498 > 100 µM | SK-MEL-2 > 100 µM

CS/C1=C(\c2ccc(C)cc2)N(c2ccccc2)C(=O)C(=O)N(c2ccccc2)/C(c2ccc(C)cc2)=C(/SC)SS1
inactive: UACC-257 > 100 µM | T47D > 100 µM | CCRF-CEM > 100 µM | NCI/ADR-RES > 100 µM | 786-0 > 100 µM | SF-268 > 100 µM | MDA-MB-231 > 100 µM | IGROV-1 > 100 µM | NCI-H522 > 100 µM | HOP-92 > 100 µM | SF-295 > 100 µM | MDA-N > 100 µM | SR > 100 µM | A498 50.5 µM | SK-MEL-2 > 100 µM

Cc1ccccc1CN1CC2=C(CCN(Cc3ccccc3)C2=O)N2CCN=C12
inactive: UACC-257 3.5 µM | T47D 4.8 µM | BT-549 14.8 µM | NCI/ADR-RES 4.09 µM | 786-0 8.89 µM | SF-268 6.87 µM | RXF 393 54 µM | A549 4.76 µM | MDA-MB-231 4.45 µM | IGROV-1 > 100 µM | NCI-H522 3.73 µM | HOP-92 21.6 µM | SF-295 3.21 µM | SR 4.59 µM | A498 13.1 µM | SK-MEL-2 4.81 µM

CCOC(=O)C(O)(NC(C)=O)C(F)(F)F (stereo unspecified)
inactive: UACC-257 > 100 µM | T47D > 100 µM | CCRF-CEM > 100 µM | BT-549 > 100 µM | NCI/ADR-RES > 100 µM | SF-268 > 100 µM | RXF 393 > 100 µM | A549 > 100 µM | IGROV-1 > 100 µM | NCI-H522 > 100 µM | HOP-92 26.2 µM | SF-295 > 100 µM | MDA-N > 100 µM | SR 7.24 µM | SK-MEL-2 > 100 µM

COc1ccc2c(c1)CC[C@@H]1[C@@H]2CC[C@]2(C)C(=O)/C(=C/c3ccc(O)c(OC)c3)C[C@@H]12
inactive: UACC-257 57.8 µM | T47D 96.6 µM | CCRF-CEM 66.2 µM | NCI/ADR-RES 44.2 µM | RXF 393 41.5 µM | A549 51.6 µM | MDA-MB-231 37.2 µM | IGROV-1 63.8 µM | HOP-92 > 100 µM | SF-295 55.6 µM | MDA-N 57.1 µM | SR 32.2 µM | A498 > 100 µM | SK-MEL-2 69.2 µM

CC(CC[C@@]1(C)C(=O)CCC2O[C@]21C)[C@H]1C[C@@H](c2ccoc2)OC1=O (stereo partly specified)
inactive: UACC-257 > 100 µM | T47D > 100 µM | CCRF-CEM 19.6 µM | NCI/ADR-RES 45.6 µM | 786-0 28.8 µM | SF-268 31 µM | RXF 393 17.2 µM | A549 > 100 µM | IGROV-1 67.3 µM | NCI-H522 3.17 µM | HOP-92 28.4 µM | SF-295 > 100 µM | MDA-N 57.1 µM | SR 97.9 µM | A498 > 100 µM | SK-MEL-2 > 100 µM

CSC1=N/C(=C\c2ccc(C)cc2)C(=O)N1CN1CCCCC1
inactive: NCI/ADR-RES 84.7 µM | 786-0 88.7 µM | SF-268 61.8 µM | A549 83.4 µM | MDA-MB-231 > 100 µM | IGROV-1 46.6 µM | NCI-H522 > 100 µM | HOP-92 67.3 µM | SF-295 > 100 µM | MDA-N > 100 µM | SR 89.7 µM | A498 > 100 µM | SK-MEL-2 > 100 µM

CN(C)/N=C1\CC(c2ccccc2)C(C#N)(C#N)C1(C#N)C#N (stereo unspecified)
inactive: UACC-257 18.6 µM | T47D 21 µM | CCRF-CEM 6.14 µM | NCI/ADR-RES 26.8 µM | 786-0 17.7 µM | SF-268 20.1 µM | RXF 393 26.5 µM | A549 36.4 µM | MDA-MB-231 21.7 µM | IGROV-1 21.4 µM | NCI-H522 12.2 µM | HOP-92 14.8 µM | SF-295 23.7 µM | MDA-N 20.8 µM | SR 18.5 µM | A498 18.2 µM | SK-MEL-2 21 µM

CCOC(=O)C(Cl)(NC(=O)OCc1ccccc1)C(F)(F)F (stereo unspecified)
inactive: UACC-257 > 100 µM | T47D > 100 µM | CCRF-CEM > 100 µM | NCI/ADR-RES > 100 µM | 786-0 > 100 µM | SF-268 > 100 µM | RXF 393 > 100 µM | A549 > 100 µM | MDA-MB-231 > 100 µM | IGROV-1 > 100 µM | NCI-H522 > 100 µM | HOP-92 > 100 µM | SF-295 > 100 µM | MDA-N > 100 µM | A498 > 100 µM | SK-MEL-2 > 100 µM

CC1=C(C#N)c2nc3ccccc3n2C(=O)C1(C)CCO (stereo unspecified)
inactive: UACC-257 > 100 µM | CCRF-CEM > 100 µM | BT-549 > 100 µM | NCI/ADR-RES > 100 µM | 786-0 > 100 µM | SF-268 > 100 µM | RXF 393 > 100 µM | A549 > 100 µM | MDA-MB-231 > 100 µM | IGROV-1 > 100 µM | NCI-H522 > 100 µM | HOP-92 > 100 µM | SF-295 > 100 µM | MDA-N > 100 µM | SR 24.3 µM | A498 > 100 µM | SK-MEL-2 > 100 µM

CCCC(C(=O)Nc1cccc2nc[nH]c12)C(=O)OCC (stereo unspecified)
inactive: UACC-257 > 100 µM | T47D > 100 µM | BT-549 > 100 µM | NCI/ADR-RES 79.1 µM | 786-0 > 100 µM | SF-268 > 100 µM | A549 > 100 µM | MDA-MB-231 > 100 µM | IGROV-1 > 100 µM | NCI-H522 44.1 µM | HOP-92 > 100 µM | SF-295 > 100 µM | SR > 100 µM | A498 > 100 µM | SK-MEL-2 > 100 µM

N=C1NC(c2ccc(Cl)cc2)=CC(c2cccc(Cl)c2)S1 (stereo unspecified)
inactive: UACC-257 25.2 µM | T47D 25.4 µM | CCRF-CEM 22.4 µM | BT-549 63.5 µM | NCI/ADR-RES 45.4 µM | 786-0 36.1 µM | SF-268 41.8 µM | RXF 393 23.8 µM | A549 24.7 µM | IGROV-1 30.9 µM | NCI-H522 20.1 µM | HOP-92 16.9 µM | SF-295 33.8 µM | MDA-N 21.2 µM | SR 28.7 µM | SK-MEL-2 20.6 µM
